Results: US7700111B2, “Auditory nerve protection and re-growth” (The Regents of the University of Michigan, priority 2002, dated 2010)
“Also recorded” adds a separate entry of the source.

Assays:
Assay type in all cases: in vivo, guinea pig
[1] = tested on: cochlear vasculature; assay: Noise-induced cochlear vasoconstriction (120 dB, one hour); details: given intraperitoneally 1 hour before noise exposure
Protocol: (§1) The infusion rate was controlled by a syringe pump. Systemic infusions were achieved via a cannula inserted in the right jugular vein. Changes in cochlear blood flow (CBF) were measured with the fine probe of a laser Doppler flowmeter (LDF) placed on the bony surface of the cochlea. Arterial blood pressure (BP) and heart rate were monitored from a cannula in the right carotid artery. BP and CBF were continuously recorded, as was their ratio (CBF/BP) as a derived measure of cochlear vascular […] (VC). The results are shown if FIGS. 10-18.
Three guinea pigs were exposed to high intensity (120 dB) noise for one hour (6×10 min, red lines in top panel). BP, CBF, and VC measurements were made during 2-min off-noise periods. Over the course of the exposure, there was pronounced vasoconstriction (VC) and decrease in cochlear blood flow (CBF), while BP remained stable (mean±SD).
Noise exposure was as in FIG. 15. However, when the antioxidant glutathione-monoethyl ester (GSHE) was given intraperitoneally 1 hour before noise exposure, the effect of noise on CBF and VC was eliminated.

[2] = Noise-induced permanent ABR threshold shift; details: 10 days after 4 kHz octave band noise, 115 dB SPL, 5 hours; 2, 4, 8, 16, 20 kHz; drug i.p. 30 min before noise; versus 0.9% NaCl
Protocol: (§2) Each animal received a drug dose before either being noise-exposed for 5 hours or simply placed in the exposure chamber for 5 hours. Auditory brain stem responses (ABR) were measured 2 days before and 10 days after noise exposure or sham exposure. Immediately after the second ABR measurement, animals were sacrificed for histological examination or for measurement of 8-isoprostane.
(§3) Animals were assigned to one of 17 groups (see Table 3). Eight groups were used to assess the effects of these agents on noise-induced threshold (auditory brain stem response, ABR) sensitivity and hair cell damage (cytocochleogram). Nine groups were used to determine the effects on noise-induced lipid peroxidation. Groups were injected intraperitoneally with 5 ml/kg of 0.9% NaCl, 0.2 mg/ml (+)-MK-801, 0.2 mg/ml (−)-MK-801, 0.2 mg/ml L-NAME, 100 mg/ml NAC, or a mixture of 0.2 mg/ml (+)-MK-801 and 100 mg/ml NAC 30 min before being placed in the exposure chamber. Because of the high clearance of PD 174494, one group of animals received 5 ml/kg of 2 mg/ml PD 174494 intraperitoneally 30 min before and 2 hr into noise exposure. A control group received 5 ml/kg of 0.9% NaCl on the same time schedule.
Animals were anesthetized with xylazine (10 mg/kg) and ketamine (40 mg/kg) given intramuscularly. A differential active needle electrode was placed subcutaneously below the test ear and a reference electrode at the vertex. A ground electrode was positioned below the contralateral ear. The sound stimuli consisted of 15 ms tone bursts, with a rise-fall time of 1 ms at frequencies of 2, 4, 8, 16 and 20 kHz, and were generated using a Fordham Audio Generator (Model AG-298, Fordham Radio Supply, Hauppauge N.Y.). They were presented to the right external auditory meatus in a closed acoustic system through an ear bar connected to a transducer (Beyer DT-48, Beyer Dynamic, Farmingdale N.Y.). The sound intensity was varied by 5 dB intervals. One thousand twenty-four tone presentations given at the rate of 9 s^−1 were averaged using a microcomputer and custom software to obtain a waveform. Hearing threshold was defined by the consistent appearance of ABR peaks III or IV. Test/retest reliability was within 5 dB. After the second ABR measurement, the cochleae were harvested.
Animals were exposed to noise in a lighted and ventilated sound exposure chamber while having free access to food and water. The sound chamber was fitted with speakers driven by a noise generator and a power amplifier. Using a ½-inch Brūel and Kjaer condenser microphone and Fast Fourier Transform analyzer, sound levels were measured and calibrated at multiple locations within the sound chamber to ensure uniformity of the stimulus. The stimulus intensity varied by a maximum of 3 dB across measured sites within the exposure chamber. […]

[3] = tested on: outer and inner hair cells; assay: Hair cell count (cytocochleogram) after noise exposure; details: for hair cell loss: hair cell type not specified; for inner hair cell loss / outer hair cell loss: region 9-13 mm from apex, 10 days after noise, versus 0.9% NaCl
Protocol: as §2, §3
(§4) Animals were exposed to noise in a lighted and ventilated sound exposure chamber while having free access to food and water. The sound chamber was fitted with speakers driven by a noise generator and a power amplifier. Using a ½-inch Brūel and Kjaer condenser microphone and Fast Fourier Transform analyzer, sound levels were measured and calibrated at multiple locations within the sound chamber to ensure uniformity of the stimulus. The stimulus intensity varied by a maximum of 3 dB across measured sites within the exposure chamber. Animals were individually subjected to 4 kHz octave band noise, 115 dB SPL for 5 hours. Two hours after initiation, noise exposure was interrupted for 10 min to perform the second injection of 0.9% NaCl or PD 174494 in groups requiring it.
Animals were sacrificed under deep anesthesia. The bullae were quickly removed and transferred into 4% paraformaldehyde in 0.01 M phosphate-buffered saline (PBS)(pH 7.4). The bone near the apex, round window, and oval window was opened, followed by two gentle local perfusions from the apex with 1 ml of 4% paraformaldehyde each. The tissue was kept in the fixative for 12 hr. After removal of the bony capsule and the lateral wall tissues, the modiolar core including the organ of Corti was removed from the temporal bone. Following permeabilization with 0.3% Triton X-100 for 10 min, whole-mounts of the organ of Corti were stained for actin with fluorescent phalloidin for 30 min to outline hair cells and their stereocilia for a quantitative assessment (Raphael and Altschuler, Hear. Res., 31:173 [1991]). Slide preparations were observed under fluorescence microscopy and missing (as shown by scar formation) and present (as shown by intact stereocilia) hair cells in the sensory epithelium were counted from the apex to the base in 0.19 mm segments. Percent hair cell loss was calculated for each segment. A group mean cytocochleogram was created by averaging the loss at each segment. Differences were evaluated for statistical significance on the basis of data from the region 9-13 mm from apex, the region of greatest damage in a previous study (Ohinata et al., Hear. Res. 146: 28 [2000]).

[4] = tested on: 8-isoprostane; assay: Cochlear 8-isoprostane (lipid peroxidation) by enzyme immunoassay after noise exposure; details: for 8-isoprostane level in the lateral wall / 8-isoprostane level in the modiolar core / 8-isoprostane level in the organ of Corti: after noise exposure, versus 0.9% NaCl
Protocol: as §2, §3, §4
Animals were anesthetized with xylazine (10 mg/kg) and ketamine (40 mg/kg) given intramuscularly and decapitated. The auditory bullae were removed and the bony capsule of the cochlea was immediately opened.
Guinea pig cochleae were dissected in ice-cold Hanks' balanced salt solution (HBSS, Gibco Laboratories, Grand Island, N.Y.: 1.25 mM CaCl2, 5.55 mM glucose, 0.81 mM MgSO4, 0.44 mM KH2PO4, 136.9 mM NaCl, 0.34 mM Na2HPO4, 5.4 mM KCl, 5.0 mM sodium HEPES, with pH titrated to 7.4 (with NaOH) and osmolality adjusted to 300±1 mOsm with NaCl). Lateral wall tissues (spiral ligament and stria vascularis) and organ of Corti were removed from the modiolar core. The tissues were transferred to a 0.05% dl-dithiothreitol solution to prevent auto-oxidation of arachidonic acid and homogenized with a homogenizer for 30 sec. The homogenate was centrifuged at 7,200×g for 15 min at 4° C. Proteins were measured in aliquots of the supernatant by the Bradford method (Bradford, Anal. Biochem. 72: 248 [1976]). Butyl hydroxytoluene was added to the supernatant to a concentration of 0.1%, followed by 200 μl of ethanol and another homogenization. The homogenate was centrifuged at 1,500×g for 10 min at 4° C. Two hundred μl of 15% KOH was added to the supernatant for determination of the levels of free and esterified 8-isoprostane, and the mixture was incubated at 40° C. for 1 hr. The solution was then acidified to pH 3 with HCl. The samples were applied to octadecylsilyl silica columns pre-activated with methanol and distilled water and subsequently washed with distilled water and then with hexane. 8-isoprostane was eluted with ethyl acetate containing 1% methanol, and the eluate was evaporated under N2 to dryness. The samples were dissolved in 30 μl of acetone and spotted on silica gel G thin layer chromatography plates, which were developed in chloroform/methanol/acetic acid/water (80:18:1:0.8, v/v). 8-isoprostane was located from the Rf of standards run on the same plate and visualized by spraying with 3.5% phosphomolybdic acid. […]

[5] = tested on: cochlear vasculature; assay: Cochlear blood flow (laser Doppler), blood pressure and vascular conductance after 8-iso-PGF2a / SQ29,548 infusion; details: for blood pressure (BP) response / cochlear blood flow (CBF) response: after administration, dose series; for cochlear vascular conductance (VC = CBF/BP) response: intravenous infusion
Protocol: as §1

[6] = AICA infusion of ~25 μg/kg over 2 min, minimal BP change

| Compound | noise-induced ABR threshold shift [2] | hair cell loss [3] | inner hair cell loss [3] | outer hair cell loss [3] | 8-isoprostane level in the lateral wall [4] | 8-isoprostane level in the modiolar core [4] | 8-isoprostane level in the organ of Corti [4] | other results |
| --- | --- | --- | --- | --- | --- | --- | --- | --- |
| CCOC(=O)CNC(=O)[C@H](CS)NC(=O)CC[C@H](N)C(=O)O [GSHE, glutathione-monoethyl ester] | – | – | – | – | – | – | – | effect of noise on CBF [1]: eliminated; effect of noise on VC [1]: eliminated |
| COC(=O)[C@@H](N)CCCNC(=N)N[N+](=O)[O-] [L-NAME, L-N^ω-Nitroarginine methyl ester] | significantly attenuated at 2 kHz; also recorded: increased at 20 kHz; also recorded: not threshold shift | had no effect | increased | not affected | suppressed; also recorded: decreased 8-isoprostane level | suppressed | decreased 8-isoprostane level in the organ of Corti | – |
| CC(=O)N[C@@H](CS)C(=O)O [NAC, N-acetylcysteine] | significantly attenuated threshold shifts at all frequencies | successful in preventing hair cell loss | attenuated; also recorded: some protective effect | attenuated | attenuated | attenuated | attenuated | – |
| CCCCC[C@H](O)/C=C/[C@@H]1[C@H](C/C=C\CCCC(=O)O)[C@@H](O)C[C@H]1O [8-iso-PGF2a, 8-iso-prostaglandin F2a] | – | – | – | – | – | – | – | BP during AICA infusion ([5]; 2 min AICA infusion, some of the subjects): no significant elevation in BP; decrease in CBF [5, 6]: 25-30%; decrease in VC [5, 6]: 25-30%; blood pressure (BP) response [5]: increasing response; cochlear blood flow (CBF) response [5]: increasing response; blood pressure (BP) response ([5]; listed as 8-isoPGF2a): rapid and concentration-dependent change; cochlear blood flow (CBF) response ([5]; listed as 8-isoPGF2a): rapid and concentration-dependent change; cochlear vascular conductance (VC = CBF/BP) response [5]: dose-dependent constriction of the cochlear vasculature; also recorded: Strong concentration-dependent decrease; also recorded: clear dose-dependent decrease; cochlear vascular conductance (VC = CBF/BP) response ([5]; listed as 8-isoPGF2a): strong dose-dependent decrease; dose at which the VC decrease approaches saturation ([5]; intravenous, mean maximum VC response 1.5-2.5 min after infusion initiation): approximately 30 mg/kg; BP, CBF and VC response to AICA infusion ([5]; sequential 1.25 min infusions via AICA, or 2 min AICA infusion): no significant response to the lower two doses; also recorded: dose-dependent constriction of the cochlear vasculature; also recorded: local vasoconstrictive response |
| (+)-MK-801 | significantly attenuated threshold shifts at all frequencies; also recorded: decreased threshold shift | successful in preventing hair cell loss | attenuated; also recorded: some protective effect | attenuated | did not influence | attenuated | attenuated | – |
| Cc1ccc(CC2(O)CCN(CCOc3ccc(O)cc3)CC2)cc1 [PD 174494] | significantly attenuated noise-induced hearing loss at 2, 4 and 8 kHz; also recorded: decreased threshold shift | – | protected only inner hair cells | protected only inner hair cells | did not influence | suppressed | suppressed; also recorded: less with PD 174494 than with the other treatments | inner hair cell loss ([3]; listed as PD 174474): some protective effect; effect on 8-isoprostane formation relative to that of (+)-MK-801 ([4]; organ of Corti and modiolar core): about half |
| O=C(O)CCC/C=C\C[C@@H]1[C@H](CNNC(=O)Nc2ccccc2)[C@H]2CC[C@@H]1O2 [SQ29,548] | – | – | – | – | – | – | – | decrease in cochlear vascular constriction ([5]; 35 mg/kg 8-iso-PGF2a i.v. before and after AICA infusion of antagonist, two subjects): 12%; effect on vasoconstriction (VC) by isoPGF2a ([5]; addition of the antagonist): blocked; maximum mean VC value during SQ29,548 infusion, less than after the initial 8-iso-PGF2a infusion ([5]; continuous AICA infusion of antagonist, 8-iso-PGF2a about 75-95 mg/kg i.v. over 20 sec, three subjects): 8-10% |
| (−)-MK-801 | – | – | not affected | decreased | did not affect | did not affect | did not affect | – |
